From patent US20150104868A1, “Methods of Maintaining and Improving Biological Cell Function and Activity” (GARGILL INCORPORATED, priority 2012, published 2015)

Tested on: CRL 1730 HUVECs
Assay: Microarray transcriptomics of HUVEC (HGERT/HG, HG/NG)
Assay type: cell-based, human
[1] = HUVEC, 5 mM ERT + 30 mM glucose vs 30 mM glucose
[2] = Prostate cancer, 8MP signaling pathway
[3] = Prostate cancer, Calcium/calmodulin
[4] = Prostate cancer, Carbohydrate binding
[5] = Prostate cancer, DNA binding, second listing
[6] = Prostate cancer, ILK signaling (integrin linked kinase)
[7] = Prostate cancer, Reactive oxygen species
[8] = Prostate cancer, Tyrosine phosphatase activity
[9] = Prostate cancer, Zinc ion transport

OC[C@@H](O)[C@@H](O)CO [ERT, meso-1,2,3,4-tetrahydroxybutane]
0.94 Ω: HGERT/HG CORO1A (Coronin, actin binding protein, 1A) (Prostate cancer, Actin binding)
0.98 Ω: HGERT/HG transcript MAP4K3 [1] | HGERT/HG transcript PAQR3 [1] | HGERT/HG transcript RP2 [1] | HGERT/HG transcript SDHD [1] | HGERT/HG transcript STK39 [1] | HGERT/HG transcript TRIT1 [1] | HGERT/HG transcript ZMYM1 [1] | HGERT/HG B4GALT4 (UDP-Gal:betaGlcNAc beta 1,4-galactosyltransferase, polypeptide 4) [4] | HGERT/HG FOXN2 (Forkhead box N2) (Prostate cancer, DNA binding) | HGERT/HG HKR1 (HKR1, GU-Kruppel zinc finger family member) (Prostate cancer, DNA binding) | HGERT/HG MRRF (Mitochondrial ribosome recycling factor) (Prostate cancer, DNA binding) | HGERT/HG POLR2K (Polymerase (RNA) II (DNA directed) polypeptide K, 7.0kDa) (Prostate cancer, DNA binding) | HGERT/HG POLR3F (Polymerase (RNA) III (DNA directed) polypeptide F, 39 kDa) (Prostate cancer, DNA binding) | HGERT/HG SARNP (SAP domain containing ribonucleoprotein) (Prostate cancer, DNA binding) | HGERT/HG ZNF83 (Zinc finger protein 83) (Prostate cancer, DNA binding) | HGERT/HG ZNF267 (Zinc finger protein 267) (Prostate cancer, DNA binding) | HGERT/HG ZNF614 (Zinc finger protein 614) (Prostate cancer, DNA binding) | HGERT/HG SDHD (Succinate dehydrogenase complex, subunit D, integral membrane protein) [7] | HGERT/HG PAQR3 (Progestin and adipoQ receptor family member III) (Prostate cancer, Receptor activity) | HGERT/HG PGRMC2 (Progesterone receptor membrane component 2) (Prostate cancer, Steroid hormone receptor activity)
Ψ 1.06: HGERT/HG transcript SOS1 [1] | HGERT/HG SOS1 (Son of sevenless homolog 1 (Drosophila)) (Prostate cancer, DNA binding)
Ψ 1.03: HGERT/HG transcript DCAKD [1] | HGERT/HG transcript GSN [1] | HGERT/HG transcript MARK2 [1] | HGERT/HG transcript MYST4 [1] | HGERT/HG transcript PLEC1 [1] | HGERT/HG transcript SLC2A12 [1] | HGERT/HG PLEC1 (Plectin) (Prostate cancer, Actin binding) | HGERT/HG HNF1B (HNF1 homeobox B) (Prostate cancer, DNA binding) | HGERT/HG PIAS4 (Protein inhibitor of activated STAT, 4) (Prostate cancer, DNA binding) | HGERT/HG ZNF562 (Zinc finger protein 562) (Prostate cancer, DNA binding) | HGERT/HG PIAS4 (Protein inhibitor of activated STAT, 4) [5]
Ψ 1.13: HGERT/HG transcript IFI6 [1]
Ψ 1.05: HGERT/HG transcript HIP1 [1]
1.00 Ω: HGERT/HG transcript IFT20 [1] | HGERT/HG transcript MAGED1 [1] | HGERT/HG transcript VIM [1] | HGERT/HG transcript YME1L1 [1] | HGERT/HG VIM (Vimentin) [6]
0.99 Ω: HGERT/HG transcript DDX54 [1] | HGERT/HG transcript DYNLT1 [1] | HGERT/HG transcript ESD [1] | HGERT/HG transcript FASTKD1 [1] | HGERT/HG transcript FASTKD3 [1] | HGERT/HG transcript HLTF [1] | HGERT/HG transcript HSPE1 [1] | HGERT/HG transcript RSU1 [1] | HGERT/HG transcript SLC25A24 [1] | HGERT/HG transcript SLK [1] | HGERT/HG transcript SMOX [1] | HGERT/HG transcript SUCLA2 [1] | HGERT/HG transcript TCEAL1 [1] | HGERT/HG transcript TCF12 [1] | HGERT/HG transcript VPS4B [1] | HGERT/HG UBE2D1 (Ubiquitin-conjugating enzyme E2D1 (U8C4/5 homolog, yeast)) [2] | HGERT/HG C6orf66 (NADH dehydrogenase (ubiquinone) 1 alpha subcomplex, assembly factor 4) [3] | HGERT/HG SLC25A24 (Solute carrier family 25 (mitochondrial carrier; phosphate carrier), member 24) [3] | HGERT/HG C10orf125 (Chromosome 10 open reading frame 125) [4] | HGERT/HG GPBP1 (GC-rich promoter binding protein 1) (Prostate cancer, DNA binding) | HGERT/HG HBP1 (HMG-box transcription factor 1) (Prostate cancer, DNA binding) | HGERT/HG KIN (KIN, antigenic determinant of recA protein homolog (mouse)) (Prostate cancer, DNA binding) | HGERT/HG RABGEF1 (RAB guanine nucleotide exchange factor (GEF) 1) (Prostate cancer, DNA binding) | HGERT/HG RNF11 (Ring finger protein 11) (Prostate cancer, DNA binding) | HGERT/HG RPA3 (Replication protein A3, 14kDa) (Prostate cancer, DNA binding) | HGERT/HG TCF12 (Transcription factor 12) (Prostate cancer, DNA binding) | HGERT/HG TRIM26 (Tripartite motif-containing 26) (Prostate cancer, DNA binding) | HGERT/HG ZNFT84 (Zinc finger protein 784) (Prostate cancer, DNA binding) | HGERT/HG pdcd6 (Aryl-hydrocarbon receptor repressor) (Prostate cancer, DNA binding) | HGERT/HG RNF11 (Ring finger protein 11) [5] | HGERT/HG RSU1 (Ras suppressor protein 1) [6] | HGERT/HG COX8A (Cytochrome c oxidase subunit VIIIA (ubiquitous)) [7] | HGERT/HG MPHOSPH6 (M-phase phosphoprotein 6) [7] | HGERT/HG SMOX (Spermine oxidase) [7] | HGERT/HG TCF12 (Transcription factor 12) [7] | HGERT/HG DUSP23 (Dual specificity phosphatase 23) [8] | HGERT/HG SLC30A6 (Solute carrer family 30 (zinc transporter), member 6) [9] | HGERT/HG SLC30A9 (Solute carrer family 30 (zinc transporter), member 9) [9]
Ψ 1.07: HGERT/HG transcript SAMHD1 [1]
0.96 Ω: HGERT/HG transcript PLEK2 [1] | HGERT/HG transcript SDHC [1]
0.97 Ω: HGERT/HG transcript SOAT1 [1] | HGERT/HG SOAT1 (Sterol O-acyltransferase 1) (Prostate cancer, Sterol metabolism)
0.98: HGERT/HG transcript MBIP [1] | HGERT/HG transcript MTM1 [1] | HGERT/HG transcript Magmas [1] | HGERT/HG transcript NAP8 [1] | HGERT/HG transcript SACM1L [1] | HGERT/HG transcript SFT2D2 [1] | HGERT/HG transcript SFXN4 [1] | HGERT/HG transcript SLC25A43 [1] | HGERT/HG transcript STXBP3 [1]
0.99: HGERT/HG transcript EID2 [1] | HGERT/HG transcript HADH [1] | HGERT/HG transcript HIATL1 [1] | HGERT/HG transcript LUC7L2 [1] | HGERT/HG transcript MFSOL [1] | HGERT/HG transcript NDUFA4 [1] | HGERT/HG transcript OXCT1 [1] | HGERT/HG transcript PHF16 [1] | HGERT/HG transcript PLCD4 [1] | HGERT/HG transcript PLEKHA3 [1] | HGERT/HG transcript RNF20 [1] | HGERT/HG transcript SAMM50 [1] | HGERT/HG transcript SCFD1 [1] | HGERT/HG transcript SEC61G [1] | HGERT/HG transcript SETD3 [1] | HGERT/HG transcript SLC30A6 [1] | HGERT/HG transcript SLC41A2 [1] | HGERT/HG transcript SNX3 [1] | HGERT/HG transcript SNX14 [1] | HGERT/HG transcript SUDS3 [1] | HGERT/HG transcript TIMM8B [1] | HGERT/HG transcript TMEM14C [1] | HGERT/HG transcript U8A3 [1] | HGERT/HG transcript VPS26A [1] | HGERT/HG transcript ZNF59B [1]
Ψ 1.01: HGERT/HG transcript DAP [1] | HGERT/HG transcript DBT [1] | HGERT/HG transcript ENG [1] | HGERT/HG transcript FOXC1 [1] | HGERT/HG transcript HIG2 [1] | HGERT/HG transcript HPCAL1 [1] | HGERT/HG transcript KIDINS220 [1] | HGERT/HG transcript KIF1B [1] | HGERT/HG transcript LIMK1 [1] | HGERT/HG transcript NCK2 [1] | HGERT/HG transcript NDE1 [1] | HGERT/HG transcript OTUD5 [1] | HGERT/HG transcript PDIA5 [1] | HGERT/HG transcript PITRM1 [1] | HGERT/HG transcript PRRX1 [1] | HGERT/HG transcript PXN [1] | HGERT/HG transcript RPS6KA2 [1] | HGERT/HG transcript SEC31A [1] | HGERT/HG transcript SENP3 [1] | HGERT/HG transcript SESTD1 [1] | HGERT/HG transcript SH3PXD2B [1] | HGERT/HG transcript TACC1 [1] | HGERT/HG transcript TGM2 [1] | HGERT/HG transcript TIMP2 [1] | HGERT/HG transcript TXNDC11 [1] | HGERT/HG transcript USP22 [1] | HGERT/HG transcript WDFY2 [1] | HGERT/HG BMP6 (Bone morphogenetic protein 6) [2] | HGERT/HG HPCAL1 (Hippocalcin-like 1) [3] | HGERT/HG SEC31A (SEC31 homolog A (S. cerevisiae)) [3] | HGERT/HG ADAR (Adenosine deaminase, RNA-specific) (Prostate cancer, DNA binding) | HGERT/HG ATF6 (Activating transcription factor 6) (Prostate cancer, DNA binding) | HGERT/HG DBT (Dihydrolipoamide branched chain transacylase E2) (Prostate cancer, DNA binding) | HGERT/HG FOXC1 (Forkhead box C1) (Prostate cancer, DNA binding) | HGERT/HG FOXN3 (Forkhead box N3) (Prostate cancer, DNA binding) | HGERT/HG FOXP1 (Forkhead box P1) (Prostate cancer, DNA binding) | HGERT/HG GZF1 (GDNF-inducible zinc finger protein 1) (Prostate cancer, DNA binding) | HGERT/HG PCBP1 (Poly(rC) binding protein 1) (Prostate cancer, DNA binding) | HGERT/HG POLG (Polymerase (DNA directed), gamma) (Prostate cancer, DNA binding) | HGERT/HG PRRX1 (Paired related homeobox 1) (Prostate cancer, DNA binding) | HGERT/HG PUF60 (Poly-U binding splicing factor 60KDa) (Prostate cancer, DNA binding) | HGERT/HG RYBP (RING1 and YY1 binding protein) (Prostate cancer, DNA binding) | HGERT/HG SOX4 (SRY (sex determining region Y)-box 4) (Prostate cancer, DNA binding) | HGERT/HG TCF25 (Transcription factor 25 (basic helix-loop-helix)) (Prostate cancer, DNA binding) | HGERT/HG TOX4 (TOX high mobility group box family member 4) (Prostate cancer, DNA binding) | HGERT/HG TTF1 (Transcription termination factor, RNA polyrnerase 1) (Prostate cancer, DNA binding) | HGERT/HG ZBED3 (Zinc finger, BED-type containing 3) (Prostate cancer, DNA binding) | HGERT/HG ZNF232 (Zinc finger protein 232) (Prostate cancer, DNA binding) | HGERT/HG RYBP (RING1 and YY1 binding protein) [5] | HGERT/HG TTF1 (Transcription termination factor, RNA polymerase 1) [5] | HGERT/HG JUP (Junction plakoglobin) (Prostate cancer, Endothelial cell-cell adhesion) | HGERT/HG ACTN1 (Actinin, alpha 1) [6] | HGERT/HG PXN (Paxillin) [6] | HGERT/HG JUP (Junction plakaglobin) [7] | HGERT/HG PTPLAD1 (Protein tyrosine phosphatase-like A domain containing 1) [8] | HGERT/HG SLC39A13 (Solute carrer family 39 (zinc transporter), member 13) [9]
Ψ 1.02: HGERT/HG transcript FBLIM1 [1] | HGERT/HG transcript FURIN [1] | HGERT/HG transcript GJC1 [1] | HGERT/HG transcript GNAI2 [1] | HGERT/HG transcript GPR124 [1] | HGERT/HG transcript LYN [1] | HGERT/HG transcript NOTCH1 [1] | HGERT/HG transcript PDCD7 [1] | HGERT/HG transcript RHOB [1] | HGERT/HG transcript ZNF318 [1] | HGERT/HG GJC1 (Gap junction protein, gamma 1, 45kDa) [3] | HGERT/HG EXTL3 (Exostoses (multiple)-like 3) [4] | HGERT/HG GCS2 (Mannosyl-oligosaccharide glucosidase) [4] | HGERT/HG BBX (Bobby sox homolog (Drosophilia)) (Prostate cancer, DNA binding) | HGERT/HG DEAF1 (Deformed epidermal autoregulatory factor 1 (Drosophila)) (Prostate cancer, DNA binding) | HGERT/HG MXD4 (MAX dimerization protein 4) (Prostate cancer, DNA binding) | HGERT/HG POLO1 (Polymerase (DNA directed), delta 1, catalytic subunit 125kDa) (Prostate cancer, DNA binding) | HGERT/HG T8RG1 (Transforming growth factor beta regulator 1) (Prostate cancer, DNA binding) | HGERT/HG UBN1 (Ubinuclein 1) (Prostate cancer, DNA binding) | HGERT/HG FBUM1 (Gene ID 54751) [6] | HGERT/HG RHOB (Ras homolog gene family, member B) [6] | HGERT/HG RHOJ (Ras homolog gene family, member J) [6]
Ψ 1.04: HGERT/HG transcript GOLGA2 [1]
Ψ 1.00: HGERT/HG CIB1 (Calcium and integrin binding 1 (calmyrin)) [3]
